This test deals with T1, BRM (Homo sapiens, UniProt P51531).
T1 construct: In-Cell Western Screen of BRM Degradation in SW1573 Cells; endogenous in cells; host or cells: SW1573
The test can be described thus: In-cell Western screen of BRM degradation in SW1573 cells (Dmax and DC50). As to conditions: BRM degradation, SW1573 cells; for DC50: read-out: DC50; for Dmax: when tested at the top concentration of between 0.3 and 10 μM, read-out: Dmax (%) (% degraded). Type of test: cell-based. The procedure, abridged:
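Overnight compound treatment (18-20 h, final DMSO 0.1%) of SW1573 cells in DMEM with 10% FBS precedes fixation and in-cell Western staining with 800/680 nm dye-labelled secondaries. Plate images give DC50 and maximal degradation.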

Molecules are shown by their SMILES.

Data on 11 compounds can be found in patent publication US12539292B2, “BRM targeting compounds and associated methods of use” (Arvinas Operations, Inc., priority 2018, dated 2026).

T1 sequence (P51531 whole entry): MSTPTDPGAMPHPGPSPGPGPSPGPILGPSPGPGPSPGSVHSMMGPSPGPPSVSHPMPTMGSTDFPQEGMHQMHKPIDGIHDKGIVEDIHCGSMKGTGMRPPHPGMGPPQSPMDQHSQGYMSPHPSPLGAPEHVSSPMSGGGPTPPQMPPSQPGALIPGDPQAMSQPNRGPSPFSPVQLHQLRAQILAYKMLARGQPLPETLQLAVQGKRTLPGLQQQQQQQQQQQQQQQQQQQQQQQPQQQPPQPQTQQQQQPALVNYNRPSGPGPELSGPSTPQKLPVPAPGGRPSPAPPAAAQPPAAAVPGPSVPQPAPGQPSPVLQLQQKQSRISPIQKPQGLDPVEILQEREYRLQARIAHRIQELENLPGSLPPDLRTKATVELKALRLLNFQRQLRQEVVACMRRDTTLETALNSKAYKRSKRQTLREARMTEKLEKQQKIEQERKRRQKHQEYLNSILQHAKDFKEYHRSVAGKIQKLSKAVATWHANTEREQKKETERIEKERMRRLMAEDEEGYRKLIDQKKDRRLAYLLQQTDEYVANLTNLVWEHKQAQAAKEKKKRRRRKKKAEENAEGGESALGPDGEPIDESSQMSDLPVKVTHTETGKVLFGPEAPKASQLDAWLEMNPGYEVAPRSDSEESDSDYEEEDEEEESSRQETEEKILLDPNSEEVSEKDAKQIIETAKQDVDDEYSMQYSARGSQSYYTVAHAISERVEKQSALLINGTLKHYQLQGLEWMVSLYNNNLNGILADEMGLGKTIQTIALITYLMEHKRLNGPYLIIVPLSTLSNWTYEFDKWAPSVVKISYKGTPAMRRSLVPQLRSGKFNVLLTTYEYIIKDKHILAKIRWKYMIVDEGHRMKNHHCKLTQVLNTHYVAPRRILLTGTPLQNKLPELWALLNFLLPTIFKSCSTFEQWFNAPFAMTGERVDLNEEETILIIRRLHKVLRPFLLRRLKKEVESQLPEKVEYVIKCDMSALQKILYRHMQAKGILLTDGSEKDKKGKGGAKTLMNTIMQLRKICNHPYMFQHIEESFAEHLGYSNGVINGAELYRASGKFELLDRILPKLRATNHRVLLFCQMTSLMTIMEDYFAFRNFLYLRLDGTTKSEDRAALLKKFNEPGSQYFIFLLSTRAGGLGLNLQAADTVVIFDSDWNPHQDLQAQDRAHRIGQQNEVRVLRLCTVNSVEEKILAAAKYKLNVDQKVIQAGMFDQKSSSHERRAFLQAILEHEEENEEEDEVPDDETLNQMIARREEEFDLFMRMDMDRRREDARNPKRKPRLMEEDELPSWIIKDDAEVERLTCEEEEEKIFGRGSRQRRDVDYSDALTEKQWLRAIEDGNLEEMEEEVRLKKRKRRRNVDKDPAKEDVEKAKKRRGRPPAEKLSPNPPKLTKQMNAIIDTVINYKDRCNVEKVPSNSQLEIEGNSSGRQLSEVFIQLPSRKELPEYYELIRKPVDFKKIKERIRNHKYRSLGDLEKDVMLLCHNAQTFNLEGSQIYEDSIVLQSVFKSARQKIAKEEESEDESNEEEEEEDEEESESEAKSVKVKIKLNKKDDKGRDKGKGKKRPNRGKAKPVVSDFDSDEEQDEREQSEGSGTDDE

With `Cc1ncsc1-c1ccc([C@H](C)NC(=O)[C@@H]2C[C@@H](O)CN2C(=O)[C@H](c2cc(OCCCc3ccc(C(C)n4cc(-c5cc(-c6ccccc6O)nnc5N)cn4)cc3)no2)C(C)C)cc1` (stereo partly drawn) [compound 59, (2S,4R)-1-((2S)-2-(3-(3-(4-(1-(4-(3-amino-6-(2-hydroxyphenyl)pyridazin-4-yl)-1H-pyrazol-1-yl)ethyl)phenyl)propoxy)isoxazol-5-yl)-3-methylbutanoyl)-4-hydroxy-N-((S)-1-(4-(4-methylthiazol-5-yl)phenyl)ethyl)pyrrolidine-2-carboxamide], the DC50 is over 30 nM and the Dmax was over 75%.

Consider `Cc1ncsc1-c1ccc([C@H](C)NC(=O)[C@@H]2C[C@@H](O)CN2C(=O)[C@@H](c2cc(OCCCc3ccc(C(C)n4cc(-c5cc(-c6ccccc6O)nnc5N)cn4)cc3)no2)C(C)C)cc1` (stereo partly drawn) [compound 60, (2S,4R)-1-((2R)-2-(3-(3-(4-(1-(4-(3-amino-6-(2-hydroxyphenyl)pyridazin-4-yl)-1H-pyrazol-1-yl)ethyl)phenyl)propoxy)isoxazol-5-yl)-3-methylbutanoyl)-4-hydroxy-N-((S)-1-(4-(4-methylthiazol-5-yl)phenyl)ethyl)pyrrolidine-2-carboxamide], for which the DC50 is under 2.5 nM and the Dmax is over 75%. For `Cc1ncsc1-c1ccc([C@H](C)NC(=O)[C@@H]2C[C@@H](O)CN2C(=O)[C@@H](NC(=O)COCCCc2ccc(C(C)n3cc(-c4cc(-c5ccccc5O)nnc4N)cn3)cn2)C(C)(C)C)cc1` (stereo partly drawn) [compound 61, (2S,4R)-1-((2S)-2-(2-(3-(5-(1-(4-(3-amino-6-(2-hydroxyphenyl)pyridazin-4-yl)-1H-pyrazol-1-yl)ethyl)pyridin-2-yl)propoxy)acetamido)-3,3-dimethylbutanoyl)-4-hydroxy-N-((S)-1-(4-(4-methylthiazol-5-yl)phenyl)ethyl)pyrrolidine-2-carboxamide], the half-maximal degradation concentration (DC50) lay in the range of 10 to 30 nM and the Dmax was over 75%. On the same counts, the results for `Cc1ncsc1-c1ccc([C@H](C)NC(=O)[C@@H]2C[C@@H](O)CN2C(=O)[C@@H](c2cc(OCCN3CCN(CCOCCn4cc(-c5cc(-c6ccccc6O)nnc5N)cn4)CC3)no2)C(C)C)cc1` [compound 62, (2S,4R)-1-((R)-2-(3-(2-(4-(2-(2-(4-(3-amino-6-(2-hydroxyphenyl)pyridazin-4-yl)-1H-pyrazol-1-yl)ethoxy)ethyl)piperazin-1-yl)ethoxy)isoxazol-5-yl)-3-methylbutanoyl)-4-hydroxy-N-((S)-1-(4-(4-methylthiazol-5-yl)phenyl)ethyl)pyrrolidine-2-carboxamide] are 2.5 to 10 nM and over 75%. With `Cc1ncsc1-c1ccc([C@H](C)NC(=O)[C@@H]2C[C@@H](O)CN2C(=O)[C@H](c2cc(OCCOCCOCCCCN3CC4(C3)CN(c3cc(-c5ccccc5O)nnc3N)C4)no2)C(C)C)cc1` [compound 65, (2S,4R)-1-((S)-2-(3-(2-(2-(4-(6-(3-amino-6-(2-hydroxyphenyl)pyridazin-4-yl)-2,6-diazaspiro[3.3]heptan-2-yl)butoxy)ethoxy)ethoxy)isoxazol-5-yl)-3-methylbutanoyl)-4-hydroxy-N-((S)-1-(4-(4-methylthiazol-5-yl)phenyl)ethyl)pyrrolidine-2-carboxamide], the DC50 was over 30 nM. Consider `Cc1ncsc1-c1ccc([C@H](C)NC(=O)[C@@H]2C[C@@H](O)CN2C(=O)[C@@H](c2cc(OCCOCCOCCCCN3CC4(C3)CN(c3cc(-c5ccccc5O)nnc3N)C4)no2)C(C)C)cc1` [compound 66, (2S,4R)-1-((R)-2-(3-(2-(2-(4-(6-(3-amino-6-(2-hydroxyphenyl)pyridazin-4-yl)-2,6-diazaspiro[3.3]heptan-2-yl)butoxy)ethoxy)ethoxy)isoxazol-5-yl)-3-methylbutanoyl)-4-hydroxy-N-((S)-1-(4-(4-methylthiazol-5-yl)phenyl)ethyl)pyrrolidine-2-carboxamide], for which the DC50 is over 30 nM and the Dmax was over 75%.

As to `Cc1ncsc1-c1ccc([C@H](C)NC(=O)[C@@H]2C[C@@H](O)CN2C(=O)[C@H](c2cc(OCCOCCOCCCCN3CCC4(CC3)CCN(c3cc(-c5ccccc5O)nnc3N)CC4)no2)C(C)C)cc1` [compound 67, (2S,4R)-1-((S)-2-(3-(2-(2-(4-(9-(3-amino-6-(2-hydroxyphenyl)pyridazin-4-yl)-3,9-diazaspiro[5.5]undecan-3-yl)butoxy)ethoxy)ethoxy)isoxazol-5-yl)-3-methylbutanoyl)-4-hydroxy-N-((S)-1-(4-(4-methylthiazol-5-yl)phenyl)ethyl)pyrrolidine-2-carboxamide], the DC50 was over 30 nM. Regarding `Cc1ncsc1-c1ccc([C@H](C)NC(=O)[C@@H]2C[C@@H](O)CN2C(=O)[C@@H](c2cc(OCCOCCOCCCCN3CCC4(CC3)CCN(c3cc(-c5ccccc5O)nnc3N)CC4)no2)C(C)C)cc1` [compound 68, (2S,4R)-1-((R)-2-(3-(2-(2-(4-(9-(3-amino-6-(2-hydroxyphenyl)pyridazin-4-yl)-3,9-diazaspiro[5.5]undecan-3-yl)butoxy)ethoxy)ethoxy)isoxazol-5-yl)-3-methylbutanoyl)-4-hydroxy-N-((S)-1-(4-(4-methylthiazol-5-yl)phenyl)ethyl)pyrrolidine-2-carboxamide], the DC50 was 2.5 to 10 nM and the Dmax was over 75%. On the same counts, the results for `Cc1ncsc1-c1ccc([C@H](C)NC(=O)[C@@H]2C[C@@H](O)CN2C(=O)[C@H](c2cc(OCC#Cc3ccc(O[C@H]4C[C@H](Oc5cc(N6C7CCC6CN(c6cc(-c8ccccc8O)nnc6N)C7)ccn5)C4)cn3)no2)C(C)C)cc1` [compound 69, (2S,4R)-1-((2S)-2-(3-((3-(5-((1r,3S)-3-((4-(3-(3-amino-6-(2-hydroxyphenyl)pyridazin-4-yl)-3,8-diazabicyclo[3.2.1]octan-8-yl)pyridin-2-yl)oxy)cyclobutoxy)pyridin-2-yl)prop-2-yn-1-yl)oxy)isoxazol-5-yl)-3-methylbutanoyl)-4-hydroxy-N-((S)-1-(4-(4-methylthiazol-5-yl)phenyl)ethyl)pyrrolidine-2-carboxamide] are 10 to 30 nM and over 75%. On the same counts, the results for `Cc1ncsc1-c1ccc([C@H](C)NC(=O)[C@@H]2C[C@@H](O)CN2C(=O)[C@@H](c2cc(OCC#Cc3ccc(O[C@H]4C[C@H](Oc5cc(N6C7CCC6CN(c6cc(-c8ccccc8O)nnc6N)C7)ccn5)C4)cn3)no2)C(C)C)cc1` [compound 70, (2S,4R)-1-((2R)-2-(3-((3-(5-((1r,3R)-3-((4-(3-(3-amino-6-(2-hydroxyphenyl)pyridazin-4-yl)-3,8-diazabicyclo[3.2.1]octan-8-yl)pyridin-2-yl)oxy)cyclobutoxy)pyridin-2-yl)prop-2-yn-1-yl)oxy)isoxazol-5-yl)-3-methylbutanoyl)-4-hydroxy-N-((S)-1-(4-(4-methylthiazol-5-yl)phenyl)ethyl)pyrrolidine-2-carboxamide] are under 2.5 nM and over 75%.

For `Cc1ncsc1-c1ccc([C@H](C)NC(=O)[C@@H]2C[C@@H](O)CN2C(=O)[C@H](c2cc(OCCOCCOCCCCN3CC4(CCN(c5cc(-c6ccccc6O)nnc5N)CC4)C3)no2)C(C)C)cc1` [compound 71, (2S,4R)-1-((S)-2-(3-(2-(2-(4-(7-(3-amino-6-(2-hydroxyphenyl)pyridazin-4-yl)-2,7-diazaspiro[3.5]nonan-2-yl)butoxy)ethoxy)ethoxy)isoxazol-5-yl)-3-methylbutanoyl)-4-hydroxy-N-((S)-1-(4-(4-methylthiazol-5-yl)phenyl)ethyl)pyrrolidine-2-carboxamide], the DC50 is over 30 nM.
